# Measured values: paper PMC9699089 (Pathogens, 2022)
# Tested on: L. donovani (MHOM/IN/00/DEVI) promastigotes
# Assay: In vitro antileishmanial activity on promastigotes, MTT assay
# Format: cell-based
# Conditions: Leishmania donovani, 72 h incubation, mean +/- SD of three independent experiments
# How it was run: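 Log-phase L. donovani MHOM/IN/00/DEVI promastigotes at 10^6 parasites/mL in Schneider's medium with 20% FCS were exposed to compounds for 72 h at 27 °C, final DMSO under 0.5%. Viability was read by MTT reduction over 4 h, absorbance 570 nm (630 nm reference). IC50 came from regression, three independent experiments.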
row,Compound,IC50
1,"CN(C)CCCCNCc1cc(-c2ccccc2)c2ccc3c(-c4ccccc4)cc(CNCCCCN(C)C)nc3c2n1 [Compound 1c, 2,9-Bis[(4-dimethylaminobutyl)aminomethyl]-4,7-diphenyl-1,10-phenanthroline]",> 12.5 µM
2,"CN(C)CCCCCNCc1cc(-c2ccccc2)c2ccc3c(-c4ccccc4)cc(CNCCCCCN(C)C)nc3c2n1 [Compound 1d, 2,9-Bis[(5-dimethylaminopentyl)aminomethyl]-4,7-diphenyl-1,10-phenanthroline]",> 12.5 µM
3,c1ccc(-c2cc(CNCCCN3CCCC3)nc3c2ccc2c(-c4ccccc4)cc(CNCCCN4CCCC4)nc23)cc1 [Compound 1l],> 12.5 µM
4,c1ccc(-c2cc(CNCCc3ccccn3)nc3c2ccc2c(-c4ccccc4)cc(CNCCc4ccccn4)nc23)cc1 [Compound 1m],> 12.5 µM
